Laboratory results reported in patent publication US20050147959A1, “Tissue analogs for in vitro testing and method of use therefor” (priority 2002, published 2005).

Assays:
[1] = tested on: cartilage analogs (human nasal septal chondrocytes on microcarriers); experiment: De novo proteoglycan synthesis by 35S-sulfate incorporation in cartilage analogs cultured in spinner flasks; type: cell-based; details: for sulfate incorporation, cell-associated (non-secreted) fraction, compared to controls: Ibuprofen 140 μg/ml; for de novo proteoglycan synthesis compared to the control (FIG. 8): subsequent study with PPS5, 35S label during last 24 hours of culture
Experimental: A preliminary experiment was conducted to analyze the effect of agents such as growth factors (TGF-β1) and non-steroidal anti-inflammatory drugs (NSAIDS; Ibuprofen). Human chondrocytes from donors undergoing nasal septal defect surgery were isolated by enzymatic digestion. The cells were seeded onto microcarriers at approximately 4×10^3 cells/cm^2, and incubated in spinner flasks at 60 rpm and at 37° C. and 5% CO2 until the cells reach confluency at about 14 days. […] These aggregates are referred to here as “cartilage analogs”.
(§1) Equivalent aliquots of these analogs were transferred to six 25-ml spinner flasks. Aliquots (5 ml) of control medium (no additive), or medium containing human platelet TGF-β1 (10 ng/ml; Sigma Chemical Co., St. Louis, Mo.) or Ibuprofen (140 μg/ml; Sigma) were added to duplicate flasks. TGF-β1 is a growth factor known to stimulate proteoglycan synthesis in chondrocyte cultures and cartilage explant cultures, while Ibuprofen is an anti-inflammatory drug known to inhibit proteoglycan synthesis. […] The cultures were incubated for two days. 24 hours prior to terminating the cultures, 300 μCi of ^35S—Na2SO4 (NEN Life Science Products, Boston, Mass.) was added to each flask to measure incorporation into proteoglycans during the last 24 hours of culture.
Following termination of the cultures, cells were pelleted by centrifugation and proteoglycans were extracted from the supernatant medium and the cell fraction with 4 M guanidine HCl for 24 hours at 4° C. Guanidine HCl extracts were dialyzed extensively against deionized class I water using 6,000 Da cut-off dialysis tubing (The Spectrum Companies, Gardena, Calif.). Post-dialysis volumes were measured and triplicate 100 μl samples were counted in a LS-6500 Liquid Scintillation Counter (Beckman Instruments, Inc., Palo Alto, Calif.) using Cytoscint-ES Cocktail (ICN Research Products, Costa Mesa, Calif.). The total ^35SO4 incorporation was expressed as cpm per 10^6 cells. Another set of dialyzed samples were dried on a Speed-Vac (Savant, Inc., Farmingdale, N.Y.) and was then reconstituted in sample buffer consisting of 1% sodium dodecylsulfate, 30% sucrose and 0.025% brophenol blue. The samples were boiled for 5 min and then loaded on an 0.75% agarose gel in electrophoresis buffer. After electrophoresis, the gel was treated with Entensify (NEN Life Science Products), dried and autoradiographed at −70° C.

[2] = tested on: cartilage analogs (human nasal septal chondrocytes on microcarriers); experiment: Immunoperoxidase staining for proteoglycans in chondrocytes from cartilage analogs; type: cell-based; details: two days incubation; TGF-β1 10 ng/ml, Ibuprofen 140 μg/ml
Experimental: A preliminary experiment was conducted to analyze the effect of agents such as growth factors (TGF-β1) and non-steroidal anti-inflammatory drugs (NSAIDS; Ibuprofen). Human chondrocytes from donors undergoing nasal septal defect surgery were isolated by enzymatic digestion. The cells were seeded onto microcarriers at approximately 4×10^3 cells/cm^2, and incubated in spinner flasks at 60 rpm and at 37° C. and 5% CO2 until the cells reach confluency at about 14 days. At this point, the chondrocytes produce extracellular matrix-like products consisting of type II collagen, high-molecular-weight proteoglycans and aggrecan. The constructs also start to form microaggregates. These aggregates are referred to here as “cartilage analogs”.
as §1, with “24 hours prior to terminating the cultures, 300 μCi of ^35S—Na2SO4 (NEN Life Science Products, Boston, Mass.) was added to each flask to measure incorporation into proteoglycans during the last 24 hours of culture.” left out

[3] = preliminary experiment, two days, 35S label during last 24 hours, TGF-β1 10 ng/ml

Molecule | sulfate incorporation, cell-associated (non-secreted) fraction, compared to controls [1, 3] | de novo proteoglycan synthesis compared to the control (FIG. 8) [1] | immunostaining for proteoglycans compared to control cells [2] | sulfate incorporation, media-associated (secreted) fraction, compared to controls [1, 3]
CC(C)Cc1ccc(C(C)C(=O)O)cc1 (stereo not shown) [Ibuprofen, reference compound] | decreased the cell-associated sulfate incorporation | decreased proteoglycan synthesis | more faint immunostaining | –
TGF-β1: human platelet TGF-β1, a growth factor known to stimulate proteoglycan synthesis in chondrocyte cultures | higher sulfate incorporation | enhanced protoglycan synthesis | More intense immunostaining | higher sulfate incorporation
